Assay results published in patent US10457655B2, “Compounds and compositions for inhibition of FASN” (FORMA Therapeutics, Inc., priority 2013, dated 2019).
Where two headings read alike, the source gives them in different places.

How the values were obtained:
[1] = molecular target: FASN enzyme (Homo sapiens, UniProt P49327); test: Enzymatic Assay for FASN Inhibitors; assay type: biochemical
Method in brief: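 40 nM FASN preincubated with compound 60 min at 25° C in HEPES pH 7.3 buffer with 0.04% Triton X-100. Then 20 μM acetyl-CoA, 60 μM malonyl-CoA and 100 μM NADPH added for 90 min, quenched with CPM thiol probe; fluorescence 360/530 nm, IC50 by four-parameter fit.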

[2] = test system: PC3 cells; test: Cell Proliferation Assays for FASN Inhibitors (PC3 cells, MTT); assay type: cell-based; details: Homo sapiens, PC-3, 96 h
Method: The effects of the FASN inhibitors on cultured cancer cell proliferation were studies with cell proliferation assays. PC3 cells were maintained at standard culture media (F12K media supplemented with 10% fetal bovine serum, 1×MEM nonessential amino acid and 1× penicillin/streptomycin). 2000-3000 cells/100 μL/well was seeded in a 96-well clear culture plate. The cells were incubated overnight in 5% CO2 at 37° C. for attachment. Cell media were removed and replaced with F12K media containing 10% lipid reduced serum and compound. The final DMSO concentration is 0.1%. The cells were maintained in 5% CO2 at 37° C. for 4 days. The viability of cells was determined by MTT assays. The IC50 of a given compound was calculated by fitting the dose response curve with a four parameter logistic equation.

[3] = read-out: IC50 (uM) < 0.5, 10% lipid reduced serum, 4 days, Table 3-1

FASN enzyme, sequence (P49327 whole entry): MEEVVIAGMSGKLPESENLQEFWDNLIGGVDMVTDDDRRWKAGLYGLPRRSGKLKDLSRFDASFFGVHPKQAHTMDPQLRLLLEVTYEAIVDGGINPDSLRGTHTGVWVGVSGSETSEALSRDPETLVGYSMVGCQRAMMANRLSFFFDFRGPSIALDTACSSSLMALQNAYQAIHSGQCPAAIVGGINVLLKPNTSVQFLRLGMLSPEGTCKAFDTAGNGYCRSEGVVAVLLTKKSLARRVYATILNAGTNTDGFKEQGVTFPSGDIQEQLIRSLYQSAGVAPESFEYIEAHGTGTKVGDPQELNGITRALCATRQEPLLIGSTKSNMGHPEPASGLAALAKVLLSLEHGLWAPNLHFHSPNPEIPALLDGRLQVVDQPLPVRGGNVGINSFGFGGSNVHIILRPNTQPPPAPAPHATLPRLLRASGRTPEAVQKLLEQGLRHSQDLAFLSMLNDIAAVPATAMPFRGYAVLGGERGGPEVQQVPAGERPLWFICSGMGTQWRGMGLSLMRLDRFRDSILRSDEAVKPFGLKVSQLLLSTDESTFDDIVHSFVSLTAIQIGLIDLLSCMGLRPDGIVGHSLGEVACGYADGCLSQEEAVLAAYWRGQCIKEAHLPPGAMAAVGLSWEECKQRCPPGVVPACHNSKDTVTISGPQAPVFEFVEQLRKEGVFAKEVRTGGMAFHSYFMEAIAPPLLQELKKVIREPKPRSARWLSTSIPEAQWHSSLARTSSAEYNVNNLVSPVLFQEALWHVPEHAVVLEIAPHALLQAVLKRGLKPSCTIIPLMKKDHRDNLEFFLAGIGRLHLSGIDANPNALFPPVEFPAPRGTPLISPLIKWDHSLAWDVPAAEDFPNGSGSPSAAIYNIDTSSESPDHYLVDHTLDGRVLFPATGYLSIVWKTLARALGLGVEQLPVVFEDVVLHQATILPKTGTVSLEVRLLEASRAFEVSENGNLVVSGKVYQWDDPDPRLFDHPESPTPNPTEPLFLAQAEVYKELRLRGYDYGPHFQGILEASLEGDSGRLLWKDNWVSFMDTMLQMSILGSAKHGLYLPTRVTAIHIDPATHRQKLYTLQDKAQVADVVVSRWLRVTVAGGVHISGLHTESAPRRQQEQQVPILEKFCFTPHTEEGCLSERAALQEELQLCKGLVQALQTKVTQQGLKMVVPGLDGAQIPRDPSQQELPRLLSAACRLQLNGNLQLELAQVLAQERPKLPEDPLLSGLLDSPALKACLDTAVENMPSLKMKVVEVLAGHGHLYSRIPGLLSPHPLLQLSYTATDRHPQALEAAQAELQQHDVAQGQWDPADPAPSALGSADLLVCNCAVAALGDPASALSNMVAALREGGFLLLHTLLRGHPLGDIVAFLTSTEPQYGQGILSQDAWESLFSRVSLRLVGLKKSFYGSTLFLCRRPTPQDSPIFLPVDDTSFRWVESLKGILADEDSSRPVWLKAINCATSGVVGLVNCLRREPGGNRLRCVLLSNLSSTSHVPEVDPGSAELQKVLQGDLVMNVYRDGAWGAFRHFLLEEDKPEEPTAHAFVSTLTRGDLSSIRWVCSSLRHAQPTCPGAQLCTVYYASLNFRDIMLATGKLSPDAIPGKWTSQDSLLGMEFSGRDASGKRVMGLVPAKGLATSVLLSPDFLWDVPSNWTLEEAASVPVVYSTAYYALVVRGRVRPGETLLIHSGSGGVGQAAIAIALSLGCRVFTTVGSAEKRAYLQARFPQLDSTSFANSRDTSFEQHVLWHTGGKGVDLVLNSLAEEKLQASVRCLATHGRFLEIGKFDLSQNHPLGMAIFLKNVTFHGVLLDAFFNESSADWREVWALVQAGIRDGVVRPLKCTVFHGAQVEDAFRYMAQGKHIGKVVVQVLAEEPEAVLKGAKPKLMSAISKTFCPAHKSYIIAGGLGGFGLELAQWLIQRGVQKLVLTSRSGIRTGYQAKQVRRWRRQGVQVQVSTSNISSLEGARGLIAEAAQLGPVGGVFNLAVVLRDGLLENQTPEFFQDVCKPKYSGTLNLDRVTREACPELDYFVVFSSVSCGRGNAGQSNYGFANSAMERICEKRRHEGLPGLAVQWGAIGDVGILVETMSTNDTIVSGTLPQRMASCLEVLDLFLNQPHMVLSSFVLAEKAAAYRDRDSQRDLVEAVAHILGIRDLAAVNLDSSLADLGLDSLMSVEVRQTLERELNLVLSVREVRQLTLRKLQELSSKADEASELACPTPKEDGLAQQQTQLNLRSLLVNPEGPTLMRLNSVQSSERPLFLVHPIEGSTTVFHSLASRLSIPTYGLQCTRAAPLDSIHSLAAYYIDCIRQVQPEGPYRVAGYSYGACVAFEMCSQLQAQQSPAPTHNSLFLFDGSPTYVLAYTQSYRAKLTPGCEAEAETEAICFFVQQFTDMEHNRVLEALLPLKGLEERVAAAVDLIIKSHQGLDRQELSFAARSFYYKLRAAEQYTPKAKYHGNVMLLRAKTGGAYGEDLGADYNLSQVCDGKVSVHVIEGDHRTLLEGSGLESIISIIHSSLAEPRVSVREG

SMILES	IC50 [1]	IC50 [2, 3]	IC50 ([2]; read-out: IC50 (uM) ≥ 0.5, 10% lipid reduced serum, 4 days, Table 3-2)
O=C(c1ccc(-c2ccc3ncccc3c2)c(Cl)c1)N1CCN(C(=O)C2(O)CC2)CC1 [1-[(4-{[3-chloro-4-(quinolin-6-yl)phenyl]carbonyl}piperazin-1-yl)carbonyl]cyclopropan-1-ol]	< 500 nM	< 0.5 µM	
O=C(c1ccc(-c2cnc3ccccc3c2)c(F)c1)N1CCN(C(=O)C2(O)CC2)CC1 [1-[(4-{[3-fluoro-4-(quinolin-3-yl)phenyl]carbonyl}piperazin-1-yl)carbonyl]cyclopropan-1-ol]	< 500 nM	< 0.5 µM	
Cc1cc(C(=O)N2CCN(C(=O)C3(O)CC3)CC2)ccc1-c1ccc2c(ccn2C)c1 [1-[(4-{[3-methyl-4-(1-methyl-1H-indol-5-yl)phenyl]carbonyl}piperazin-1-yl)carbonyl]cyclopropan-1-ol]	< 500 nM	< 0.5 µM	
Cc1cc(C(=O)N2CCN(C(=O)C3(O)CC3)CC2)ccc1-c1cnc2ccccc2c1 [1-[(4-{[3-methyl-4-(quinolin-3-yl)phenyl]carbonyl}piperazin-1-yl)carbonyl]cyclopropan-1-ol]	< 500 nM	< 0.5 µM	
Cc1cc(C(=O)N2CCN(C(=O)C3(O)CC3)CC2)ccc1-c1ccc2ncccc2c1 [1-[(4-{[3-methyl-4-(quinolin-6-yl)phenyl]carbonyl}piperazin-1-yl)carbonyl]cyclopropan-1-ol]	< 500 nM	< 0.5 µM	
O=C(c1ccc(-c2nc3ccccc3s2)cc1)N1CCN(C(=O)C2(O)CC2)CC1 [1-[(4-{[4-(1,3-benzothiazol-2-yl)phenyl]carbonyl}piperazin-1-yl)carbonyl]cyclopropan-1-ol]	< 500 nM	< 0.5 µM	
O=C(c1ccc(-c2ccc3scnc3c2)cc1Cl)N1CCN(C(=O)C2(O)CC2)CC1 [1-[(4-{[4-(1,3-benzothiazol-5-yl)-2-chlorophenyl]carbonyl}piperazin-1-yl)carbonyl]cyclopropan-1-ol]	< 500 nM	< 0.5 µM	
O=C(c1ccc(-c2ccc3scnc3c2)c(Cl)c1)N1CCN(C(=O)C2(O)CC2)CC1 [1-[(4-{[4-(1,3-benzothiazol-5-yl)-3-chlorophenyl]carbonyl}piperazin-1-yl)carbonyl]cyclopropan-1-ol]	< 500 nM	< 0.5 µM	
O=C(c1ccc(-c2ccc3scnc3c2)c(F)c1)N1CCN(C(=O)C2(O)CC2)CC1 [1-[(4-{[4-(1,3-benzothiazol-5-yl)-3-fluorophenyl]carbonyl}piperazin-1-yl)carbonyl]cyclopropan-1-ol]	< 500 nM	< 0.5 µM	
Cc1cc(C(=O)N2CCN(C(=O)C3(O)CC3)CC2)ccc1-c1ccc2scnc2c1 [1-[(4-{[4-(1,3-benzothiazol-5-yl)-3-methylphenyl]carbonyl}piperazin-1-yl)carbonyl]cyclopropan-1-ol]	< 500 nM	< 0.5 µM	
O=C(c1ccc(-c2ccc3scnc3c2)cc1)N1CCN(C(=O)C2(O)CC2)CC1 [1-[(4-{[4-(1,3-benzothiazol-5-yl)phenyl]carbonyl}piperazin-1-yl)carbonyl]cyclopropan-1-ol]	< 500 nM	< 0.5 µM	
O=C(c1ccc(-c2ccc3ncsc3c2)cc1)N1CCN(C(=O)C2(O)CC2)CC1 [1-[(4-{[4-(1,3-benzothiazol-6-yl)phenyl]carbonyl}piperazin-1-yl)carbonyl]cyclopropan-1-ol]	< 500 nM	< 0.5 µM	
O=C(c1ccc(-c2nc3ccccc3o2)cc1)N1CCN(C(=O)C2(O)CC2)CC1 [1-[(4-{[4-(1,3-benzoxazol-2-yl)phenyl]carbonyl}piperazin-1-yl)carbonyl]cyclopropan-1-ol]	< 500 nM	< 0.5 µM	
O=C(c1ccc(-c2ccc3ocnc3c2)cc1)N1CCN(C(=O)C2(O)CC2)CC1 [1-[(4-{[4-(1,3-benzoxazol-5-yl)phenyl]carbonyl}piperazin-1-yl)carbonyl]cyclopropan-1-ol]	< 500 nM	< 0.5 µM	
Cc1nn(C)c2ccc(-c3ccc(C(=O)N4CCN(C(=O)C5(O)CC5)CC4)cc3)cc12 [1-[(4-{[4-(1,3-dimethyl-1H-indazol-5-yl)phenyl]carbonyl}piperazin-1-yl)carbonyl]cyclopropan-1-ol]	< 500 nM	< 0.5 µM	
O=C(c1ccc(-c2ccc3occc3c2)cc1)N1CCN(C(=O)C2(O)CC2)CC1 [1-[(4-{[4-(1-benzofuran-5-yl)phenyl]carbonyl}piperazin-1-yl)carbonyl]cyclopropan-1-ol]	< 500 nM	< 0.5 µM	
Cn1cnc2cc(-c3ccc(C(=O)N4CCN(C(=O)C5(O)CC5)CC4)cc3)ccc21 [1-[(4-{[4-(1-methyl-1H-1,3-benzodiazol-5-yl)phenyl]carbonyl}piperazin-1-yl)carbonyl]cyclopropan-1-ol]	< 500 nM	< 0.5 µM	

SMILES	IC50 [1]	IC50 [2, 3]	IC50 ([2]; read-out: IC50 (uM) ≥ 0.5, 10% lipid reduced serum, 4 days, Table 3-2)
Cn1ncc2ccc(-c3ccc(C(=O)N4CCN(C(=O)C5(O)CC5)CC4)cc3)cc21 [1-[(4-{[4-(1-methyl-1H-indazol-6-yl)phenyl]carbonyl}piperazin-1-yl)carbonyl]cyclopropan-1-ol]	< 500 nM	< 0.5 µM	
Cn1c(-c2ccc(C(=O)N3CCN(C(=O)C4(O)CC4)CC3)cc2)cc2ccccc21 [1-[(4-{[4-(1-methyl-1H-indol-2-yl)phenyl]carbonyl}piperazin-1-yl)carbonyl]cyclopropan-1-ol]	< 500 nM	< 0.5 µM	
Cn1ccc2cc(-c3ccc(C(=O)N4CCN(C(=O)C5(O)CC5)CC4)c(C(F)(F)F)c3)ccc21 [1-[(4-{[4-(1-methyl-1H-indol-5-yl)-2-(trifluoromethyl)phenyl]carbonyl}piperazin-1-yl)carbonyl]cyclopropan-1-ol]	< 500 nM	< 0.5 µM	
O=C(c1ccc(-c2cccc3[nH]cnc23)cc1)N1CCN(C(=O)C2(O)CC2)CC1 [1-[(4-{[4-(1H-1,3-benzodiazol-4-yl)phenyl]carbonyl}piperazin-1-yl)carbonyl]cyclopropan-1-ol]	< 500 nM	< 0.5 µM	
O=C(c1ccc(-c2ccc3[nH]cnc3c2)cc1)N1CCN(C(=O)C2(O)CC2)CC1 [1-[(4-{[4-(1H-1,3-benzodiazol-5-yl)phenyl]carbonyl}piperazin-1-yl)carbonyl]cyclopropan-1-ol]	< 500 nM	< 0.5 µM	
O=C(c1ccc(-c2n[nH]c3ccccc23)cc1)N1CCN(C(=O)C2(O)CC2)CC1 [1-[(4-{[4-(1H-indazol-3-yl)phenyl]carbonyl}piperazin-1-yl)carbonyl]cyclopropan-1-ol]	< 500 nM	< 0.5 µM	
O=C(c1ccc(-c2cccc3[nH]ccc23)cc1)N1CCN(C(=O)C2(O)CC2)CC1 [1-[(4-{[4-(1H-indol-4-yl)phenyl]carbonyl}piperazin-1-yl)carbonyl]cyclopropan-1-ol]	< 500 nM	< 0.5 µM	
O=C(c1ccc(-c2ccc3[nH]ccc3c2)cc1)N1CCN(C(=O)C2(O)CC2)CC1 [1-[(4-{[4-(1H-indol-5-yl)phenyl]carbonyl}piperazin-1-yl)carbonyl]cyclopropan-1-ol]	< 500 nM	< 0.5 µM	
O=C(c1ccc(-c2ccc3nsnc3c2)cc1)N1CCN(C(=O)C2(O)CC2)CC1 [1-[(4-{[4-(2,1,3-benzothiadiazol-5-yl)phenyl]carbonyl}piperazin-1-yl)carbonyl]cyclopropan-1-ol]	< 500 nM	< 0.5 µM	
O=C(c1ccc(-c2ccc(Cl)cc2Cl)cc1)N1CCN(C(=O)C2(O)CC2)CC1 [1-[(4-{[4-(2,4-dichlorophenyl)phenyl]carbonyl}piperazin-1-yl)carbonyl]cyclopropan-1-ol]	< 500 nM		≥ 0.5 µM
COc1ccc2cc(-c3ccc(C(=O)N4CCN(C(=O)C5(O)CC5)CC4)cc3)ccc2n1 [1-[(4-{[4-(2-methoxyquinolin-6-yl)phenyl]carbonyl}piperazin-1-yl)carbonyl]cyclopropan-1-ol]	< 500 nM	< 0.5 µM	
Cn1cc2cc(-c3ccc(C(=O)N4CCN(C(=O)C5(O)CC5)CC4)cc3)ccc2n1 [1-[(4-{[4-(2-methyl-2H-indazol-5-yl)phenyl]carbonyl}piperazin-1-yl)carbonyl]cyclopropan-1-ol]	< 500 nM	< 0.5 µM	
Cn1cc2ccc(-c3ccc(C(=O)N4CCN(C(=O)C5(O)CC5)CC4)cc3)cc2n1 [1-[(4-{[4-(2-methyl-2H-indazol-6-yl)phenyl]carbonyl}piperazin-1-yl)carbonyl]cyclopropan-1-ol]	< 500 nM	< 0.5 µM	
O=C(c1ccc(-c2ccc3n[nH]nc3c2)cc1)N1CCN(C(=O)C2(O)CC2)CC1 [1-[(4-{[4-(2H-1,2,3-benzotriazol-5-yl)phenyl]carbonyl}piperazin-1-yl)carbonyl]cyclopropan-1-ol]	< 500 nM	< 0.5 µM	
COc1c(Cl)cccc1-c1ccc(C(=O)N2CCN(C(=O)C3(O)CC3)CC2)cc1 [1-[(4-{[4-(3-chloro-2-methoxyphenyl)phenyl]carbonyl}piperazin-1-yl)carbonyl]cyclopropan-1-ol]	< 500 nM	< 0.5 µM	
O=C(c1ccc(-c2ccc(Cl)cc2F)cc1)N1CCN(C(=O)C2(O)CC2)CC1 [1-[(4-{[4-(4-chloro-2-fluorophenyl)phenyl]carbonyl}piperazin-1-yl)carbonyl]cyclopropan-1-ol]	< 500 nM	< 0.5 µM	
O=C(c1ccc(-c2cnc3ccccc3c2Cl)cc1)N1CCN(C(=O)C2(O)CC2)CC1 [1-[(4-{[4-(4-chloroquinolin-3-yl)phenyl]carbonyl}piperazin-1-yl)carbonyl]cyclopropan-1-ol]	< 500 nM	< 0.5 µM	
